We go through 11 compounds from US9624224B2, “Inhibitors of Bruton's tyrosine kinase” (Pharmacyclics LLC, priority 2013, dated 2017).

Common to all, as to format: biochemical
One assay concerns the target T1, BTK (Homo sapiens, UniProt Q06187).
T1 construct: purified from insect cells as a full-length construct containing a N-terminal 6×-His tag; His6 (N); made in house; host or cells: insect cells (baculovirus, Sf21)
Nature of the assay: Btk in vitro inhibitory activity (TR-FRET, mobility shift or radiometric filter binding kinase assay). The following applies: determined using one of the methods outlined in Example 47a, 47b, and 47c. The method, then: (§1) Btk kinase activity is determined using a time-resolved fluorescence resonance energy transfer (TR-FRET) methodology. Measurements are performed in a reaction volume of 50 μL using 96-well assay plates. […] The reaction is quenched by the addition of 1.2 equivalents of EDTA (relative to divalent cation) in 25 μL of 1× Lance buffer (Perkin-Elmer). Streptavidin-APC (Perkin-Elmer) and Eu-labeled p-Tyr100 antibody (Perkin-Elmer) in 1× Lance buffer are added in a 25 μL volume to give final concentrations of 100 nM and 2.5 nM, respectively, and the mixture is allowed to incubate for one hour. The TR-FRET signal is measured on a multimode plate reader with an excitation wavelength (λEx) of 330 nm and detection wavelengths (λEm) of 615 and 665 nm. Activity is determined by the ratio of the fluorescence at 665 nm to that at 615 nm. For each compound, enzyme activity is measured at various concentrations of compound. Negative control reactions are performed in the absence of inhibitor in replicates of six, and two no-enzyme controls are used to determine baseline fluorescence levels. Inhibition constants, Ki(app), ware obtained using the program BatchKi (Kuzmic et al. (2000), Anal. Biochem. 286:45-50). IC50s are obtained according to the equation: IC50={Ki(app)/(1+[ATP]/Km^ATP)}+[E]total/2;
(§2) For all kinases, [ATP]=Km^ATP, [Btk]total=0.5 nM and [Lck]total=6 nM.
Kinase activity is measured in vitro using electrophoretic mobility shift assay. The kinase reactions are assembled in a total volume of 25 μL in 384 well plates. […] The reaction is incubated for one hour and is quenched by the addition of 45 μL of termination buffer (100 mM HEPES, pH7.5, 0.01% Triton X-100, 30 mM EDTA). The terminated reactions are analyzed using 12 channel LabChip® 3000 microfluidic detection instrument (Caliper Life Sciences). The enzymatic phosphorylation of the peptide results in a change in net charge, enabling electrophoretic separation of product from substrate peptide. As substrate and product peptides are separated, two peaks of fluorescence are observed. Change in the relative fluorescence intensity of the substrate and product peaks is the parameter measured, reflecting enzyme activity. In the presence of an inhibitor, the ratio between product and substrate is altered: the signal of the product decreases, while the signal of the substrate increases.
Activity in each sample is determined as the product to sum ratio (PSR): P/(S+P), where P is the peak height of the product peptide and S is the peak height of the substrate peptide. For each compound, enzyme activity is measured at various concentrations (12 concentrations of compound spaced by 3× dilution intervals). Negative control samples (0%-inhibition in the absence of inhibitor) and positive control samples (100%-inhibition, in the presence of 20 mM EDTA) are assembled in replicates of four and are used to calculate %-inhibition values for each inhibitor at each concentration. Percent inhibition (Pinh) is determined using following equation: Pinh=(PSR0%−PSRinh)/(PSR0%−PSR100%)*100,
where PSRmh is the product sum ratio in the presence of inhibitor, PSR0% is the average product sum ration in the absence of inhibitor and PSR100% is the average product sum ratio in 100%-inhibition control samples;
The IC50 values of inhibitors are determined by 4 parameter sigmoidal dose-response model fitting of the inhibition curves (Pinh versus inhibitor concentration) using XLfit 4 software.
Human Btk kinase (Genbank accession # NP_000052) was purified from insect cells as a full-length construct containing a N-terminal 6×-His tag. Btk kinase activity was determined using a radiometric filter binding assay. Measurements are performed in a low μL reaction volume 384-well assay plates. […]
(In general: In TR-FRET formats the signal depends on donor and acceptor labels being close together.)

For the next assay, the target named is T2, Jak3 (Homo sapiens, UniProt P52333).
T2 sequence (P52333 1-1124): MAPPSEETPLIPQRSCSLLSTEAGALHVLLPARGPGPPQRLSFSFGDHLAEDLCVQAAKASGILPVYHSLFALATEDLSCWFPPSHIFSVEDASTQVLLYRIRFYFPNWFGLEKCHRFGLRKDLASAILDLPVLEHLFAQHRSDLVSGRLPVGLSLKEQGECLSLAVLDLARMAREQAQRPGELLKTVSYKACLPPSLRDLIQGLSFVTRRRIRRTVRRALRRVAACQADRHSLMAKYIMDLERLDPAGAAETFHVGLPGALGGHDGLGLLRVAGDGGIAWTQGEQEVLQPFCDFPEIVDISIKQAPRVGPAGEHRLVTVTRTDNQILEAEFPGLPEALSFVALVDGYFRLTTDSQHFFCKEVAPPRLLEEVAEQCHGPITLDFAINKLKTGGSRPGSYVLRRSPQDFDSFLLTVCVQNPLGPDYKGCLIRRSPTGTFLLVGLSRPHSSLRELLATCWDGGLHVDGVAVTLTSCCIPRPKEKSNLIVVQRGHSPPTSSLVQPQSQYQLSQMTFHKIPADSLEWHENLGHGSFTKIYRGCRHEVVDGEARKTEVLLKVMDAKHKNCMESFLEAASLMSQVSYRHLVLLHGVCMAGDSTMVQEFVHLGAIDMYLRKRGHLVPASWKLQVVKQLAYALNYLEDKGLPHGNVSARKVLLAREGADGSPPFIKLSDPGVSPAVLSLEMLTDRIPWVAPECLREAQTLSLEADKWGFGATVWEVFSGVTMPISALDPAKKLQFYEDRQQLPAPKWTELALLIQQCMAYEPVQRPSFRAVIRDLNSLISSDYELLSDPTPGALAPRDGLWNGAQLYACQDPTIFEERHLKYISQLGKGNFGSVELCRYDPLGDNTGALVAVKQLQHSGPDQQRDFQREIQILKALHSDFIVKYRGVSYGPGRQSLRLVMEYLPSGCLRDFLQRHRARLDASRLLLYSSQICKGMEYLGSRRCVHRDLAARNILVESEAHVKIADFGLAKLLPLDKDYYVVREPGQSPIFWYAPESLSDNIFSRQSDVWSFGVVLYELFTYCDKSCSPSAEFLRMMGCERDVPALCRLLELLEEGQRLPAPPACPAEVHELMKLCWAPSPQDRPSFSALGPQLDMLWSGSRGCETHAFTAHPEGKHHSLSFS
Nature of the assay: Jak3 kinase inhibition (in vitro kinase assay).

In another assay the target is EGFR (Homo sapiens, UniProt P00533). Nature of the assay: EGFR kinase inhibition (in vitro kinase assay).
The target in a further assay is Lck (Homo sapiens, UniProt P06239). Kind of assay: Lck kinase inhibition (in vitro kinase assay). The method, then:
as §1, §2

Sequence of EGFR (P00533 25-1210, species assumed): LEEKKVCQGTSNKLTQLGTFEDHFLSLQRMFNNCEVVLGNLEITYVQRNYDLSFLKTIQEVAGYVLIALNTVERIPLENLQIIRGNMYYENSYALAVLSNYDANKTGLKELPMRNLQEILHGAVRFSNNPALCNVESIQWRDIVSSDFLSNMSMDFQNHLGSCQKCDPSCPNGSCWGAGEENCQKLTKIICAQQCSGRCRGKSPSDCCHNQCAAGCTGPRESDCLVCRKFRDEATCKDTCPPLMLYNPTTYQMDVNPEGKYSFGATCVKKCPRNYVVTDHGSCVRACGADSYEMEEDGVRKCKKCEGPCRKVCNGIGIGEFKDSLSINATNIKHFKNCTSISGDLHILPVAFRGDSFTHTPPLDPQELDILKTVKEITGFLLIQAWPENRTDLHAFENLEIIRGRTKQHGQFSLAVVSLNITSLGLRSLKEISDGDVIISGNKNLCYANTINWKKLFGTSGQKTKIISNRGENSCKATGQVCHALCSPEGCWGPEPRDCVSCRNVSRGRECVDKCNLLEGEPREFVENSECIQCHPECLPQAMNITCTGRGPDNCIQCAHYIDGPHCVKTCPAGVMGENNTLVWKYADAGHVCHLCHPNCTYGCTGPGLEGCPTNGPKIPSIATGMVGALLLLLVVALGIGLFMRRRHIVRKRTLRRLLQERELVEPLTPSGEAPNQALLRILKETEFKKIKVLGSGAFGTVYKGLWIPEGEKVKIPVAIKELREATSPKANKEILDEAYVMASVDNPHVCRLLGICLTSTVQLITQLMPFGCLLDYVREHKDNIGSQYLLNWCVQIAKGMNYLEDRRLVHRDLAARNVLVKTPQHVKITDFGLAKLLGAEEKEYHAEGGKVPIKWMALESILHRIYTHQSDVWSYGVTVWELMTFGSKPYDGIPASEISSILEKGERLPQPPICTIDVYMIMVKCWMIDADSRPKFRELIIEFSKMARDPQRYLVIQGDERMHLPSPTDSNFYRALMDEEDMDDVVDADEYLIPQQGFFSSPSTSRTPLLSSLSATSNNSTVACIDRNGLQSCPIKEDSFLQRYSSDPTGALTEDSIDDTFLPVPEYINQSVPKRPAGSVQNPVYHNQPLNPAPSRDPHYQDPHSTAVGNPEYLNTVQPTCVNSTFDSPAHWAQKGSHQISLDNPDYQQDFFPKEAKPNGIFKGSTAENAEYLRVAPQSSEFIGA
Sequence of Lck (P06239 whole entry, species assumed): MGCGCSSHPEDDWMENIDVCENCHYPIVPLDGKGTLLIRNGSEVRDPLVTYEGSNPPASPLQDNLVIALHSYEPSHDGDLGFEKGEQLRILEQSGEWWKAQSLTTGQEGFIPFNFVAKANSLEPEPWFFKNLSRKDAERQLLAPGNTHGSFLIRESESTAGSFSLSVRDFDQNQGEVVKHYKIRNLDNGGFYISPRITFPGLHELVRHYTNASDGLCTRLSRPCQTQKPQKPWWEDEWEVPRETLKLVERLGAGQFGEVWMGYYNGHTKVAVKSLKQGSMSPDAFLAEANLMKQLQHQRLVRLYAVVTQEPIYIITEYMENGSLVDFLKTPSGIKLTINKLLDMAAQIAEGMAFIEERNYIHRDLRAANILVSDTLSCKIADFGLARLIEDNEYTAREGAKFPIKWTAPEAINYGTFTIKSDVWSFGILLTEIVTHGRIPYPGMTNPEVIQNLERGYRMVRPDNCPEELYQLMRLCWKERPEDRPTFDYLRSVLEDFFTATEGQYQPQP
T1 sequence (Q06187 whole entry): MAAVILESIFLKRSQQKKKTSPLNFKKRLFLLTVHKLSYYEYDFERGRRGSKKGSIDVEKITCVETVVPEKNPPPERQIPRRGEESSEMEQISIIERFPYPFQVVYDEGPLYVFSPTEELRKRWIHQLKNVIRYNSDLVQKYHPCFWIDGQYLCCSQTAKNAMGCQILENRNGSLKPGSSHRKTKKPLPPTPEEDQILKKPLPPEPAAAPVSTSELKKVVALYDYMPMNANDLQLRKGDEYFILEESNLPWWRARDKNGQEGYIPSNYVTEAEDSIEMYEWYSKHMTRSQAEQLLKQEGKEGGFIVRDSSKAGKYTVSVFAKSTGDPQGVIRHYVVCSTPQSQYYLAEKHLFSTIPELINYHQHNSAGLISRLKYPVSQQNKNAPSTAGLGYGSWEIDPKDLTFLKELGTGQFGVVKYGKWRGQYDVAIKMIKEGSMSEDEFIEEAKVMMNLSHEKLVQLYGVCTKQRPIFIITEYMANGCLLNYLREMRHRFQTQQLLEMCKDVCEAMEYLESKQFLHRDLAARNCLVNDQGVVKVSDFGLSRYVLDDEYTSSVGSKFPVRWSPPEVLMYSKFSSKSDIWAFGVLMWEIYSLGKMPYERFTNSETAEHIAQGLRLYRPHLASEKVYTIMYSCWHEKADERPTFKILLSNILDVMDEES

Regarding `Nc1ncnc2c1c(-c1ccc(C(=O)Nc3cc(C(F)(F)F)ccn3)cc1)nn2[C@@H]1CCN(C(=O)/C=C/CNC2CC2)C1` [Example 24, (R,E)-4-(4-amino-1-(1-(4-(cyclopropylamino)but-2-enoyl)pyrrolidin-3-yl)-1H-pyrazolo[3,4-d]pyrimidin-3-yl)-N-(4-(trifluoromethyl)pyridin-2-yl)benzamide], the IC50 (commonly the midpoint of a concentration-inhibition curve) on BTK was below 0.001 µM; against Jak3, above 10 µM; against EGFR, below 0.1 µM; against Lck, below 0.1 µM.

`Cc1ccnc(NC(=O)c2ccc(-c3nn([C@@H]4CCN(C(=O)/C=C/CN(C)C)C4)c4ncnc(N)c34)cc2)c1` [Example 25, (R,E)-4-(4-amino-1-(1-(4-(dimethylamino)but-2-enoyl)pyrrolidin-3-yl)-1H-pyrazolo[3,4-d]pyrimidin-3-yl)-N-(4-methylpyridin-2-yl)benzamide]: the IC50 at BTK was below 0.001 µM; on Jak3 it was above 10 µM; against EGFR, 1 to 10 µM; at Lck, above 10 µM.

On to `CC#CC(=O)N[C@H]1CC[C@H](n2nc(-c3ccc(C(=O)Nc4cc(C(F)(F)F)ccn4)cc3)c3c(N)ncnc32)CC1` [Example 19, 4-(4-amino-1-((1,4-trans)-4-but-2-ynamidocyclohexyl)-1H-pyrazolo[3,4-d]pyrimidin-3-yl)-N-(4-(trifluoromethyl)pyridin-2-yl)benzamide], for which the half-maximal inhibitory concentration (IC50) at BTK is below 0.001 µM; at Jak3 it was above 10 µM; on EGFR, 0.1 to 1 µM; on Lck it was below 0.1 µM.

Take `Cc1ccnc(NC(=O)c2ccc(-c3nn([C@H]4CC[C@H](NC(=O)/C=C/CN(C)C)CC4)c4ncnc(N)c34)cc2)c1` [Example 28, 4-(4-amino-1-((1,4-trans)-4-((E)-4-(dimethylamino)but-2-enamido)cyclohexyl)-1H-pyrazolo[3,4-d]pyrimidin-3-yl)-N-(4-methylpyridin-2-yl)benzamide]: the IC50 at BTK is below 0.1 µM; on Jak3, above 10 µM; against EGFR, 0.1 to 1 µM; against Lck it was above 10 µM.

As for `CNC/C=C/C(=O)N1CC[C@@H](n2nc(-c3ccc(C(=O)Nc4cc(C(F)(F)F)ccn4)cc3)c3c(N)ncnc32)C1` [Example 21, (R,E)-4-(4-amino-1-(1-(4-(methylamino)but-2-enoyl)pyrrolidin-3-yl)-1H-pyrazolo[3,4-d]pyrimidin-3-yl)-N-(4-(trifluoromethyl)pyridin-2-yl)benzamide], the IC50 was below 0.001 µM on BTK, above 10 µM on Jak3, below 0.1 µM against EGFR and below 0.1 µM against Lck.

Regarding `Cc1ccnc(NC(=O)c2ccc(-c3nn([C@@H]4CCN(C(=O)/C=C/CNC5CC5)C4)c4ncnc(N)c34)cc2)c1` [Example 23, (R,E)-4-(4-amino-1-(1-(4-(cyclopropylamino)but-2-enoyl)pyrrolidin-3-yl)-1H-pyrazolo[3,4-d]pyrimidin-3-yl)-N-(4-methylpyridin-2-yl)benzamide], the IC50 at BTK was below 0.001 µM; against Jak3 it was above 10 µM; at EGFR it was 0.1 to 1 µM; on Lck it was 0.1 to 1 µM.

As to `CN(C/C=C/C(=O)N1CC[C@@H](n2nc(-c3ccc(C(=O)Nc4ncc(C#N)s4)cc3)c3c(N)ncnc32)C1)C1CC1` [Example 12, (R,E)-4-(4-amino-1-(1-(4-(cyclopropyl(methyl)amino)but-2-enoyl)pyrrolidin-3-yl)-1H-pyrazolo[3,4-d]pyrimidin-3-yl)-N-(5-cyanothiazol-2-yl)benzamide], the IC50 was below 0.1 µM at BTK, below 0.001 µM at Jak3, below 0.1 µM against EGFR and below 0.1 µM on Lck.

In the case of `CN(C/C=C/C(=O)N1CC[C@@H](n2nc(-c3ccc(C(=O)Nc4nccs4)cc3)c3c(N)ncnc32)C1)C1CC1` [Example 13, (R,E)-4-(4-amino-1-(1-(4-(cyclopropyl(methyl)amino)but-2-enoyl)pyrrolidin-3-yl)-1H-pyrazolo[3,4-d]pyrimidin-3-yl)-N-(thiazol-2-yl)benzamide], the half-inhibitory concentration (IC50) at BTK is below 0.1 µM; against Jak3 it was below 0.1 µM; against EGFR it was below 0.001 µM; on Lck, below 0.1 µM.

Regarding `C=CC(=O)N[C@H]1CC[C@H](n2nc(-c3ccc(C(=O)Nc4cc(C)ccn4)cc3)c3c(N)ncnc32)CC1` [Example 27, 4-(1-((1,4-trans)-4-acrylamidocyclohexyl)-4-amino-1H-pyrazolo[3,4-d]pyrimidin-3-yl)-N-(4-methylpyridin-2-yl)benzamide], the IC50 at BTK is below 0.001 µM; at Jak3, above 10 µM; against Lck, above 10 µM.

In the case of `CNC/C=C/C(=O)N1CC[C@@H](n2nc(-c3ccc(C(=O)Nc4cc(C)ccn4)cc3)c3c(N)ncnc32)C1` [Example 22, (R,E)-4-(4-amino-1-(1-(4-(methylamino)but-2-enoyl)pyrrolidin-3-yl)-1H-pyrazolo[3,4-d]pyrimidin-3-yl)-N-(4-methylpyridin-2-yl)benzamide], the IC50 is below 0.001 µM on BTK, above 10 µM against Jak3, 0.1 to 1 µM against EGFR and 0.1 to 1 µM at Lck.

In the case of `CN(C)C/C=C/C(=O)N1CC[C@@H](n2nc(-c3ccc(C(=O)Nc4cc(C(F)(F)F)ccn4)cc3)c3c(N)ncnc32)C1` [Example 26, (R,E)-4-(4-amino-1-(1-(4-(dimethylamino)but-2-enoyl)pyrrolidin-3-yl)-1H-pyrazolo[3,4-d]pyrimidin-3-yl)-N-(4-(trifluoromethyl)pyridin-2-yl)benzamide], the IC50 on BTK was below 0.001 µM; on Jak3, above 10 µM; against EGFR, 0.1 to 1 µM; against Lck, above 10 µM.
